In patent US10336748B2, “Methyoxy-substituted pyrrolopyridine modulators of RORC2 and methods of use thereof” (Pfizer Inc., priority 2015, dated 2019) one finds IC50 data, which are given here for 14 compounds.

The term IC50 denotes the point on the concentration scale where inhibition reaches its midpoint.

In assay [1] the target is T1, RORC2 ligand binding domain (6-His-RORC2 LBD) (Homo sapiens, UniProt P51449).
T1 construct: made in house; host or cells: E. coli
T1 sequence (P51449 269-508 limits assumed): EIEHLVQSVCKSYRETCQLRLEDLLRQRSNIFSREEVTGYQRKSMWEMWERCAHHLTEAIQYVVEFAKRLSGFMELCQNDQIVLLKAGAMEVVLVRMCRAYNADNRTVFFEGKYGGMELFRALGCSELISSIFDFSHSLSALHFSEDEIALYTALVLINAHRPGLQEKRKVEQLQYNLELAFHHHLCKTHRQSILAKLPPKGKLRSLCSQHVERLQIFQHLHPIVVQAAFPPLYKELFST
Description: Co-activator recruitment by TR-FRET. The format is biochemical. To be noted: 6.3 nM RORC2 LBD, 200 nM SRC1-2 coactivator peptide, 3 hr room temperature. The text has this:
The activity of compound of the invention can be determined by a co-activator recruitment by TR-FRET (time-resolved fluorescence resonance energy transfer) assay. In general, the assay is based on the interaction between N-terminally Six-Histidine-tagged-RORC2 ligand binding domain (6-His-RORC2 LBD), expressed in E. coli and purified by affinity chromatography, and biotin-coactivator peptide SRC1-2 (biotin-aminohexanoic acid-[…]-NH2; SEQ ID NO: 1) containing the LXXLL consensus domain which is responsible for receptor binding. This interaction is detected by addition of Europium labeled-anti-His antibody (Ex. 337 nm, Em. 620 nm, which binds to 6His) and Streptavidin-APC (Ex. 620 nm, Em. 665 nm, which binds to biotin). When receptor and coactivator are bound to each other, upon shining light at 337 nm on the sample, the Europium emits fluorescence that excites APC due to close proximity (FRET) and this signal is measured at 665 nm. Due to the long lasting fluorescence emission of Europium, the non-specific, short-lived fluorescence is time-resolved (TR) from the fluorescence of interest. Inhibitors of the interaction of receptor and coactivator peptide are detected by a decrease in TR-FRET signal.
Specifically, in one embodiment the aforementioned assay was performed as outlined below. The assay was carried out in black polystyrene. 384-well plates in a total assay volume of 50.5 μL. The assay buffer contained 50 mM TRIS-HCL pH 7.5, 1 mM NaCl, 2 mM MgCl2, 0.5 mg/mL bovine serum albumin, and 5 mM dithiothreitol. The final concentration of reagents was 6.3 nM RORC2 LBD, 200 nM SRC1-2, 50 nM streptavidin APC, 1 nM Europium-labeled anti-His antibody, and varying concentrations of compounds such that final concentration of DMSO is 1% (v/v). The assay steps were: (1) dispensing […] compound at 100× final concentration in DMSO (test wells) or DMSO only (control wells for no inhibition); and (2) dispensing 50 μL mixture of the other assay components including receptor (test wells) or excluding receptor (control wells for maximal inhibition).
Assay mixtures were incubated are room temperature for 3 hr and read in EnVision 2100 Multilabel Reader (PerkinElmer Life Sciences) at Excitation Filter 320, Emission Europium Filter 615, Emission APC Filter 665, Dichroic Mirror D400/D630.
TR-FRET signal was determined by calculating the ratio of 665 nm by 615 nm and […] values of compounds of the invention (Table 1) were determined by the non-linear regression analysis of dose response curves.

The subject of the next assay is human Th17 cells. The assay is described as follows: IL-17 production from human Th17 cells. The assay is classed as cell-based. To be noted: 144 h; IL-17A in supernatant by ELISA (MSD) after 6 days, human CD4+ T cells, anti-CD3 + anti-CD28 + cytokine cocktail. The method, then:
The activity of compound of the invention can be also be determined by an IL-17 production from human Th17 cells assay. In general, this assay measures blockade of IL-17 production, the signature cytokine of T helper 17 (Th17) cells, by compounds. Purified human CD4+ T cells are stimulated with anti-CD3+anti-CD28 and incubated with a cytokine cocktail that induce their differentiation into Th17 in the absence or presence of various concentrations of compound. After 6 days, IL-17A concentration is measured in the cell culture supernatant with an ELISA kit (MSD).
Preparation of human CD4+ T cells. CD4+ T cells were purified from buffy coats from healthy donors (obtained from Massachusetts General Hospital) by negative selection the following procedure: Mixing 25 mL of blood with 1 mL of Rosette Sep CD4+ T cell enrichment cocktail (StemCell Technologies) followed by application of a layer of 14 mL Ficoll Paque Plus (Amersham GE Healthcare) and subsequent centrifugation at 1200 g for 20 min at room temperature. The Ficoll layer was then harvested and washed with phosphate saline buffer containing 2% (v/v) fetal bovine serum and cells were resuspended with RPMI medium containing 10% (v/v) fetal bovine serum and 10% (v/v) DMSO, frozen and kept in LN2 until used.
On the first day of the assay, a vial containing 10^7 CD4+ T cells is thawed rapidly in 37° C. water bath, immediately transferred into 20 mL X-Vivo 15 medium (Lonza), is spun for 6 min at 300×g, the supernatant is discarded, and the resulting pellet is re-suspended at 10^6 cells/mL in […] fresh X-Vivo 15 medium, followed by storage overnight in a tissue culture vessel in a humidified chamber at 37° C. and 5% CO2. Serial dilutions of compounds of the invention are prepared at 10× final concentration in X-Vivo15 medium containing 3% (v/v) DMSO.
On the second day of the assay, a 384-well tissue culture plate was coated with 10 μg/mL anti-hCD3 (eBioscience) at 50 μL/well. After 2 hr at 37° C., the supernatant is discarded and the coated plates are kept in a sterile tissue culture hood.
Cytokine plus anti-CD28 cocktail is prepared by mixing 25 ng/mL hIL-6 (Peprotech), 5 ng/mL hTGFbeta1 (Peprotech), 12.5 ng/mL IL-1beta (Peprotech), 25 ng/mL hIL-21, 25 ng/mL hIL-23 (R&D Systems), and 1 ug/mL anti-hCD28 (eBioscience) in X-Vivo 15 medium. The cytokine plus anti-CD28 cocktail with CD4+ cells is prepared such that the cocktail is diluted 10-fold and cell density is 0.22×10^6/mL. The mixture is incubated 1 hr at 37° C.
90 μL (20,000 cells) dispensed per well in the anti-hCD3 coated plate prepared as noted above.
10 μL 10× compound is added per well (final DMSO=0.3%) from the compound plate that was previously prepared, followed by 6 days of incubation in a tissue culture vessel in a humidified chamber at 37° C. and 5% CO2.
On day six of the assay, production of IL-17A in 10 μL of the supernatant is determined by sandwich ELISA using 384w hIL17 MSD plates following the manufacturer's protocol. Measurement is carried out in a Sector Imager 6000 by the same manufacturer. Signal units from the instrument are converted to pg/mL using a calibration curve with known amounts of IL-17A. IC50 values of test compounds (Table 2) are determined by the non-linear regression analysis of dose response curves.
In general terms: ELISA stands for enzyme-linked immunosorbent assay.

As for `COc1c(NC(=O)c2ccc(C)c(C#N)c2)cnc2c1c(C1CCN(C(=O)C3CCCC3)CC1)cn2C` [Example 11, 3-cyano-N-(3-(1-(cyclopentanecarbonyl)piperidin-4-yl)-4-methoxy-1-methyl-1H-pyrrolo[2,3-b]pyridin-5-yl)-4-methylbenzamide], the values for the IC50 (in assay [1]; in the assay on human Th17 cells) were 0.0178 µM and 0.0507 µM, respectively.

`COc1c(NC(=O)c2cccc(C#N)c2)cnc2c1c(C1CCN(C(=O)[C@H](C)C3CCCC3)CC1)cn2C` [Example 18, (R)-3-cyano-N-(3-(1-(2-cyclopentylpropanoyl)piperidin-4-yl)-4-methoxy-1-methyl-1H-pyrrolo[2,3-b]pyridin-5-yl)benzamide]: the results for the IC50 (in assay [1]; with human Th17 cells) were 0.0071 µM and 0.0065 µM, respectively.

For `COc1c(NC(=O)c2cc(C#N)cc(CO)c2)cnc2c1c(C1CCN(C(=O)C3CCCC3)CC1)cn2C` [Example 17, 3-cyano-N-(3-(1-(cyclopentanecarbonyl)piperidin-4-yl)-4-methoxy-1-methyl-1H-pyrrolo[2,3-b]pyridin-5-yl)-5-(hydroxymethyl)benzamide], the half-inhibitory concentration (IC50) was determined as 0.0142 µM in assay [1] and 0.082 µM with human Th17 cells.

For the compound `COc1c(NC(=O)c2cccc(C#N)c2)cnc2c1c(C1CCN(C(=O)c3c(C)cccc3F)CC1)cn2C` [Example 16, 3-cyano-N-(3-(1-(2-fluoro-6-methylbenzoyl)piperidin-4-yl)-4-methoxy-1-methyl-1H-pyrrolo[2,3-b]pyridin-5-yl)benzamide], the 50% inhibitory concentration (IC50) worked out at 0.0072 µM in assay [1] and 0.0365 µM in the assay with human Th17 cells.

As for `COc1ccc(C(=O)Nc2cnc3c(c(C4CCN(C(=O)[C@H](C)C(C)(C)C)CC4)cn3C)c2OC)cc1C#N` [Example 4, (R)-3-cyano-4-methoxy-N-(4-methoxy-1-methyl-3-(1-(2,3,3-trimethylbutanoyl)piperidin-4-yl)-1H-pyrrolo[2,3-b]pyridin-5-yl)benzamide], the concentration for half-maximal inhibition (IC50) turned out to be 0.0069 µM in assay [1] and 0.011 µM in the assay on human Th17 cells.

Take `COc1c(NC(=O)c2cccc(C#N)c2)cnc2c1c([C@@H]1[C@@H]3CC[C@H]1CN(C(=O)[C@H](C)C(C)(C)C)C3)cn2C` [Example 21, 3-cyano-N-(4-methoxy-1-methyl-3-((1R,5S,8R)-3-((R)-2,3,3-trimethylbutanoyl)-3-azabicyclo[3.2.1]octan-8-yl)-1H-pyrrolo[2,3-b]pyridin-5-yl)benzamide]: the IC50 with human Th17 cells came to 0.0213 µM.

For `COc1cc(C#N)cc(C(=O)Nc2cnc3c(c(C4CCN(C(=O)C[C@@H](O)C(F)(F)F)CC4)cn3C)c2OC)c1` [Example 9, (R)-3-cyano-5-methoxy-N-(4-methoxy-1-methyl-3-(1-(4,4,4-trifluoro-3-hydroxybutanoyl)piperidin-4-yl)-1H-pyrrolo[2,3-b]pyridin-5-yl)benzamide], the IC50 in assay [1] stood at 0.0562 µM; in the assay on human Th17 cells, 0.0771 µM.

With `COc1ccc(C(=O)Nc2cnc3c(c(C4CCN(C(=O)C(C)C)CC4)cn3C)c2OC)cc1C#N` [Example 2, 3-cyano-N-(3-(1-isobutyrylpiperidin-4-yl)-4-methoxy-1-methyl-1H-pyrrolo[2,3-b]pyridin-5-yl)-4-methoxybenzamide], the concentration for half-maximal inhibition (IC50) in assay [1] is 0.0387 µM; in the assay with human Th17 cells, 0.0178 µM.

With `COc1c(NC(=O)c2cccc(C#N)c2)cnc2c1c([C@@H]1[C@@H]3CC[C@H]1CN(C(=O)C(C)C)C3)cn2C` [Example 20, 3-cyano-N-(3-(3-isobutyryl-3-azabicyclo[3.2.1]octan-8-yl)-4-methoxy-1-methyl-1H-pyrrolo[2,3-b]pyridin-5-yl)benzamide], the IC50 in assay [1] was 0.0232 µM; in the assay with human Th17 cells, 0.113 µM.

As to `COc1c(NC(=O)c2cccc(C#N)c2)cnc2c1c([C@@H]1CCN(C(=O)C(C)C)C(C)(C)C1)cn2C` [Example 28, (R)-3-cyano-N-(3-(1-isobutyryl-2,2-dimethylpiperidin-4-yl)-4-methoxy-1-methyl-1H-pyrrolo[2,3-b]pyridin-5-yl)benzamide], the IC50 in assay [1] came to 0.0062 µM; in the assay with human Th17 cells, 0.0212 µM.

Regarding `COc1ccc(C(=O)Nc2cnc3c(c(C4CCN(C(=O)C5CCCCC5)CC4)cn3C)c2OC)cc1C#N` [Example 13, 3-cyano-N-(3-(1-(cyclohexanecarbonyl)piperidin-4-yl)-4-methoxy-1-methyl-1H-pyrrolo[2,3-b]pyridin-5-yl)-4-methoxybenzamide], the values for the concentration for half-maximal inhibition (IC50) (in assay [1]; in the assay on human Th17 cells) were 0.0154 µM and 0.0095 µM, respectively.

Take `COc1c(NC(=O)c2cccc(C#N)c2)cnc2c1c([C@@H]1CCN(C(=O)[C@H](C)C(C)(C)C)C(C)(C)C1)cn2C` [Example 26, 3-cyano-N-(3-((R)-2,2-dimethyl-1-((R)-2,3,3-trimethylbutanoyl)piperidin-4-yl)-4-methoxy-1-methyl-1H-pyrrolo[2,3-b]pyridin-5-yl)benzamide]: the figures for the 50% inhibitory concentration (IC50) (in assay [1]; with human Th17 cells) were 0.0104 µM and 0.0064 µM, respectively.

As for `COc1c(NC(=O)c2cccc(C#N)c2)cnc2c1c([C@@H]1[C@@H]3CC[C@H]1CN(C(=O)C1CCCC1)C3)cn2C` [Example 23, 3-cyano-N-(3-((1R,5S,8r)-3-(cyclopentanecarbonyl)-3-azabicyclo[3.2.1]octan-8-yl)-4-methoxy-1-methyl-1H-pyrrolo[2,3-b]pyridin-5-yl)benzamide], the IC50 was determined as 0.0312 µM in assay [1] and 0.038 µM in the assay with human Th17 cells.

For the compound `COc1ccc(C(=O)Nc2cnc3c(c([C@@H]4[C@@H]5CC[C@H]4CN(C(=O)C4CCCC4)C5)cn3C)c2OC)cc1C#N` [Example 22, 3-cyano-N-(3-((1R,5S,8r)-3-(cyclopentanecarbonyl)-3-azabicyclo[3.2.1]octan-8-yl)-4-methoxy-1-methyl-1H-pyrrolo[2,3-b]pyridin-5-yl)-4-methoxybenzamide], the IC50 in the assay on human Th17 cells amounted to 0.0227 µM.
